Data as given in patent EP4212151B1, “STILBENE, FLAVONOL OR CURCUMIN COMPOUNDS FOR USE IN THE TREATMENT OF AGE-RELATED MACULAR DEGENERATION (AMD; ARMD)” (Knepper, Paul A., priority 2022, dated 2023).
“And” between values parts separate entries of the source, which are not always exact repeats. Identical values can stand only once. Like-named read-outs stand apart in the source and are kept apart here.

What was measured:
[1] = tested on: superactivated platelets (SAPs); assay: In-vitro flow cytometry platelet assay: superactivated platelets (SAP% of all platelets) after thrombin and convulxin; combination index by CompuSyn; type: cell-based; conditions: Homo sapiens; for IC50: individually (single agent), read-out: IC50 for the reduction of SAPs; for inhibition at 0.01 µM: single agent 0.01 µM; for inhibition at 0.01 µM / inhibition at 0.1 µM / inhibition at 1 µM / inhibition at 5 µM / inhibition at 10 µM: read-out: % change; for inhibition at 0.1 µM: single agent 0.1 µM; for inhibition at 1 µM: single agent 1 µM; for inhibition at 5 µM: single agent 5 µM; for inhibition at 10 µM: single agent 10 µM
Excerpt: Briefly, platelet-rich plasma (PRP) from patients with age-related macular degeneration (n = 9) are isolated from whole blood and challenged using dual agonists thrombin and convulxin (collagen substitute) to stimulate superactivated platelets (SAPs). SAPs are defined as positive for surface fibrinogen and negative for activated integrin αIIbβ3, whereas activated platelets are defined as negative for surface fibrinogen and positive for activated integrin αIIbβ3. Surface fibrinogen is detected by pre-treating platelets with biotinylated-fibrinogen (5 µg/mL) followed by staining with any common fluorophore conjugated to streptavidin. The streptavidin-fluorophore complex binds to the biotin-fibrinogen complex present on SAPs but not activated platelets due to the differing composition of charged surface proteins. Activated integrin αIIbβ3 - characteristic of activated platelets - is detected using the PAC-1 antibody conjugated to any compatible fluorophore. […] The effect of RQC on SAPs is determined by pre-treating diluted PRP samples with combinations of R, Q, and/or C for 5 minutes at 37°C followed by challenge with thrombin and convulxin for 5 minutes at 37°C. The samples are then stained with the fluorophore-conjugates and fixed in 3% formalin before analysis using a flow cytometer. SAP percentage is calculated as a percentage of all platelets. The effect size of RQC is determined by the change ion SAP percentage before and after treatment with RQC and is used as input to calculate drug synergy using the CompuSyn software developed by Chou, et al. Drug synergy, additivism, and antagonism are defined as a combination index (CI) score less than, equal to, or greater than 1, respectively. The level of drug synergy can be further stratified by quantile, tertile, or quartile in cases where numerous synergistic doses are compared.
The average combination index values of low, medium, and high doses of RQC for the inhibition of SAPs in AMD subjects was determined. The Combination Index (CI) theorem derived by Chou-Talalay [Chou, 2010] was calculated for each combination drug treatment of R, Q, and C. The CI is useful in quantifying levels of synergism and antagonism. The theorem is based on the median-effect equation to provide a common link between a single entity and multiple entities. A CI value < 1 indicates synergism, a CI equal to 1 indicates additivity, and a CI > 1 indicates antagonism. RQC was very effective in low, medium, and high doses.
R, Q, and C at three different dose levels each were tested in all possible combinations, resulting in 27 possible double and 27 possible triple combinations within each subject. The doses tested were R (1, 5, and 10 µM), Q (1, 5, and 10 µM), and C (0.01, 0.1, and 1 µM) and the effect was based on the inhibition of SAPs. To obtain the mean number of synergistic doses in each cohort, the average CI score for each dose combination was calculated within each cohort, producing a set of 27 double combination CI scores and 27 triple combination CI scores per cohort. Out of each set of 27 dose combinations, the number of CI scores under 0.8 (highly synergistic) was counted and reported here. For example, in control subjects 5 out of 27 possible double combinations were synergistic while 25 out of 27 possible triple combinations were synergistic based on the mean CI for each dose in the cohort.

Dry AMD Subjects [2] = assay: Geographic atrophy area and growth rate in dry AMD subjects, Phase 1 study, 12 months; type: in vivo, human
Protocol: The effect of RQC and curcumin on geographic atrophy growth was evaluated in a Phase 1 study (TABLE 5, below) TABLE 5.
The expected untreated GA growth rate reported in the literature is 1.20 mm^2/year (or 0.18 mm/year adjusted for baseline lesion area). […] The decrease in GA growth rate was highly significant (p = 0.0004) compared with untreated samples [Yehoshua, et al., 2011] and remained highly significant when adjusted for differences in baseline lesion area (p = 0.0001). […]

Dry AMD Subjects [3] = assay: Drusen volume by OCT (manual segmentation, ImageJ) in dry AMD subjects, oral treatment for 18 months; type: in vivo, human; conditions: oral C 2660 mg/day or RQC 200/240/2660 mg/day; for Drusen Volume % Change: 18 months vs baseline; for Drusen Volume, 18 Months: after 18 months
Excerpt: As stated hereinabove, dry AMD is a common disease characterized by retinal pathology. A typical finding of dry AMD is the presence of drusen and/or geographic atrophy. TABLE 1 below depicts drusen volume at baseline and after 18 months according to drusen size in all participants (C or RQC). […] To compare the changes in drusen volume found in this study in subjects taking oral curcumin against what would be expected over the natural course of the disease, optical coherence tomography (OCT) scans were evaluated. OCT is a new retinal imaging technology which is useful to analyze drusen volume and geographic atrophy. Each subject was scanned 6 months before treatment. This allowed for the examination of the natural history of a subject's drusen progression compared to progression with treatment. Standard deviation (SD) is expressed in mm^3. Statistical significance was determined by Wilcoxon Rank Sum test. Drusen volume was measured by manual segmentation using ImageJ software. Drusen size was determined by the widest width of the drusen and expressed in µm. […]

[4] = cited from earlier work; for Half-life: human, in vivo; for Bioavailability: oral
[5] = cited from earlier work; for maximum dose (highest dose evaluated in a repeated-dose clinical trial and found safe and tolerable): human, in vivo; for dose found well tolerated, low or no toxicity: clinical trials, doses as high as
[6] = drusen ≥ 250 µm, listed as curcumin

SMILES: COc1cc(/C=C/C(=O)CC(=O)/C=C/c2ccc(O)c(OC)c2)ccc1O [Curcumin, (1E,6E)-1,7-bis(4-Hydroxy-3-methoxyphenyl)-1,6-heptadiene-3,5-dione]
- IC50 [1]: 3.6 µM
- inhibition at 0.01 µM ([1]; AMD (GA) subject): 11.5%
- inhibition at 0.01 µM ([1]; control subject): 24.1%
- inhibition at 0.1 µM ([1]; AMD (GA) subject): 18.4%
- inhibition at 0.1 µM ([1]; control subject): 36.8%
- inhibition at 1 µM ([1]; AMD (GA) subject): 37%
- inhibition at 1 µM ([1]; control subject): 33.7%
- Growth Rate (mm^2/y) (Dry AMD Subjects [2]; GA, mean of arm, 12 months of treatment): 0.68 ± 0.79 mm^2/y
- Growth Rate (mm^2/y) (Dry AMD Subjects [2]; GA, mean of arm, 12 months of treatment, listed as curcumin): 0.68 mm^2/y
- Baseline Area (mm^2) (Dry AMD Subjects [2]; GA, mean of arm, baseline): 1.08 ± 1.10 mm^2
- Growth Rate (mm/y) (Dry AMD Subjects [2]; GA, mean of arm, square root transformed (adjusted for baseline lesion area), 12 months): 0.21 ± 0.25 mm/y
- Growth Rate (mm/y) (Dry AMD Subjects [2]; GA, mean of arm, square root transformed (adjusted for baseline lesion area), 12 months, listed as curcumin): 0.21 mm/y
- Area (mm^2), Baseline (Dry AMD Subjects [2]; geographic atrophy, individual eyes (subject c0, eye c2, GA category c7), baseline, listed as C): 1.794 mm^2 and 2.254 mm^2 and 0.147 mm^2 and 0.134 mm^2
- Growth Rate (mm^2/y) (Dry AMD Subjects [2]; geographic atrophy, individual eyes, 12 months, listed as C): 1.462 mm^2/y and 1.258 mm^2/y and -0.037 mm^2/y and 0.037 mm^2/y
- Area (mm^2), 12 mo (Dry AMD Subjects [2]; geographic atrophy, individual eyes, after 12 months of treatment, listed as C): 3.256 mm^2 and 3.512 mm^2 and 0.110 mm^2 and 0.171 mm^2
- Growth Rate (mm/y) (Dry AMD Subjects [2]; geographic atrophy, individual eyes, square root transformed, 12 months, listed as C): 0.373 mm/y and 0.465 mm/y and -0.046 mm/y and 0.055 mm/y
- Growth Rate (mm^2/y) (Dry AMD Subjects [2]; nascent GA (nGA), mean of arm, 12 months of treatment): 0.00 ± 0.05 mm^2/y
- Growth Rate (mm^2/y) (Dry AMD Subjects [2]; nascent GA (nGA), mean of arm, 12 months of treatment, listed as curcumin): 0.005 mm^2/y
- Baseline Area (mm^2) (Dry AMD Subjects [2]; nascent GA (nGA), mean of arm, baseline): 0.14 ± 0.01 mm^2
- Growth Rate (mm/y) (Dry AMD Subjects [2]; nascent GA (nGA), mean of arm, square root transformed (adjusted), 12 months): 0.01 ± 0.07 mm/y
- Growth Rate (mm/y) (Dry AMD Subjects [2]; nascent GA (nGA), mean of arm, square root transformed (adjusted), 12 months, listed as curcumin): 0.01 mm/y
- Drusen Volume % Change (Dry AMD Subjects [3]; All drusen): -13.0%
- Drusen Volume, 18 Months (Dry AMD Subjects [3]; All drusen): 8.70 mm^3
- Drusen Volume, 18 Months (Dry AMD Subjects [3]; All drusen, listed as curcumin): 8.7 (± 1.6) mm^3
- Drusen Volume, Baseline (Dry AMD Subjects [3]; All drusen): 10.1 mm^3
- Drusen Volume, Baseline (Dry AMD Subjects [3]; All drusen, listed as curcumin): 10.1 (± 1.60) mm^3
- Drusen Volume % Change (Dry AMD Subjects [3]; drusen 63-124 µm): 0.0%
- Drusen Volume, 18 Months (Dry AMD Subjects [3]; drusen 63-124 µm): 0.08 mm^3
- Drusen Volume, Baseline (Dry AMD Subjects [3]; drusen 63-124 µm): 0.08 mm^3
- Drusen Volume % Change (Dry AMD Subjects [3]; drusen 125-249 µm): -1.6%
- Drusen Volume, 18 Months (Dry AMD Subjects [3]; drusen 125-249 µm): 3.70 mm^3
- Drusen Volume, Baseline (Dry AMD Subjects [3]; drusen 125-249 µm): 3.80 mm^3
- Drusen Volume % Change (Dry AMD Subjects [3]; drusen ≥ 250 µm): -20.0%
- Drusen Volume % Change (Dry AMD Subjects [3]; [6]): -30.0% and -20.0%
- Drusen Volume, 18 Months (Dry AMD Subjects [3]; drusen ≥ 250 µm): 6.00 mm^3
- Drusen Volume, 18 Months (Dry AMD Subjects [3]; [6]): 6.00 (± 1.30) mm^3
- Drusen Volume, Baseline (Dry AMD Subjects [3]; drusen ≥ 250 µm): 7.50 mm^3
- Drusen Volume, Baseline (Dry AMD Subjects [3]; [6]): 0.75 (± 1.30) mm^3
- Half-life [4]: 5 to 6 h
- Bioavailability [4]: 0.01-0.1%
- Cmax ([4]; read-out: maximum plasma concentration, two capsules (1000 mg each)): 600 to 1000 nM
- maximum dose (highest dose evaluated in a repeated-dose clinical trial and found safe and tolerable) [5]: 12000 mg/day
- dose safe and well tolerated ([5]; review of clinical trials, doses up to, only minimal, mostly gastrointestinal side effects): 8 to 12 g/day

SMILES: O=c1c(O)c(-c2ccc(O)c(O)c2)oc2cc(O)cc(O)c12 [Quercetin, 2-(3,4-dihydroxyphenyl)-3,5,7-trihydroxychromen-4-one;dihydrate]
- IC50 [1]: 31 µM
- inhibition at 1 µM ([1]; AMD (GA) subject): 6.7%
- inhibition at 1 µM ([1]; control subject): 36.9%
- inhibition at 5 µM ([1]; AMD (GA) subject): 43.9%
- inhibition at 5 µM ([1]; control subject): 38.2%
- inhibition at 10 µM ([1]; AMD (GA) subject): 27.3%
- inhibition at 10 µM ([1]; control subject): 24.7%
- dose found well tolerated, low or no toxicity [5]: ≤ 5 g per day
- maximum dose (highest dose evaluated in a repeated-dose clinical trial and found safe and tolerable) [5]: 5000 mg/day

SMILES: Oc1ccc(/C=C/c2cc(O)cc(O)c2)cc1 [Resveratrol, 5-[(1E)2-(4-hydroxyphenyl)ethenyl]-1,3-benzenediol]
- IC50 [1]: 36 µM
- inhibition at 1 µM ([1]; AMD (GA) subject): 8.6%
- inhibition at 1 µM ([1]; control subject): 19.6%
- inhibition at 5 µM ([1]; AMD (GA) subject): 17.1%
- inhibition at 5 µM ([1]; control subject): 24.6%
- inhibition at 10 µM ([1]; AMD (GA) subject): 18.6%
- inhibition at 10 µM ([1]; control subject): 30.5%
- Half-life [4]: 2 to 5 h
- Bioavailability [4]: 0.1-0.4%
- dose found well tolerated, low or no toxicity [5]: ≤ 5 g per day
- maximum dose (highest dose evaluated in a repeated-dose clinical trial and found safe and tolerable) [5]: 5000 mg/day
